# According to patent US10076519B2 (CYTOKINETICS, INC., priority 2010, dated 2018):
# System: rabbit skeletal myofibrils (fast skeletal myofibrils)
# Assay: Activation of fast skeletal myofibrils (PUMA assay, PK/LDH-coupled ATPase at pCa25)
# Type: biochemical
# Conditions: AC1.4 determined according to the procedure of Example 39; reported as class symbols
# Method in brief: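 ATPase activity of Triton-washed rabbit skeletal myofibrils, roughly 90% fast fibres, tracked by NADH loss at 340 nm through a PK/LDH-coupled ADP-regenerating system. Calcium set to 25% of maximal activity (pCa25), in PIPES 12 mM pH 6.8 with 2 mM MgCl2 and 1 mM DTT; AC1.4 reported.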
row,Mean AC1.4,Structure (SMILES)
1,B (B=1-10 uM),N#Cc1cncc(-c2ccc(NCC3(c4ccc(F)cc4)CC3)nn2)c1 [5-[6-({[(4-fluorophenyl)cyclopropyl]meth-yl}amino)pyridazin-3-yl]pyridine-3-carbonitrile]
2,B (B=1-10 uM),NC(=O)c1cncc(-c2ccc(NCC3(c4ccc(F)cc4)CC3)nn2)c1 [5-[6-({[(4-fluorophenyl)cyclopropyl]meth-yl}amino)pyridazin-3-yl]pyridine-3-carboxamide]
3,B (B=1-10 uM),CC(C)(CNc1nnc(-c2cccc(C(N)=O)c2)cc1C(N)=O)c1ccc(F)cc1 [6-(3-carbamoylphenyl)-3-{[2-(4-fluorophenyl)-2-methylpropyl]amino}pyridazine-4-carboxamide]
4,B (B=1-10 uM),"CC(C)(CNc1ccc(-c2ccc3[nH]c(=O)[nH]c(=O)c3c2)nn1)c1ccc(F)cc1 [6-(6-{[2-(4-fluorophenyl)-2-methylpropyl]amino}pyridazin-3-yl)-1,3-dihydroquinazoline-2,4-dione]"
5,A (A=<1 uM),"CC(C)(CNc1ccc(-c2ccc3[nH]c(=O)c(=O)[nH]c3c2)nn1)c1ccc(F)cc1 [6-(6-{[2-(4-fluorophenyl)-2-methylpropyl]amino}pyridazin-3-yl)-1,4-dihydroquinoxaline-2,3-dione]"
6,D (D=>20 uM),"CC(C)(CNc1ccc(-c2ccc3c(c2)NC(=O)C3(C)C)nn1)c1ccc(F)cc1 [6-(6-{[2-(4-fluorophenyl)-2-methylpropyl]amino}pyridazin-3-yl)-3,3-dimethylindolin-2-one]"
7,B (B=1-10 uM),CC(C)(CNc1ccc(-c2cccc(O)n2)nn1)c1ccc(F)cc1 [6-(6-{[2-(4-fluorophenyl)-2-methylpropyl]amino}pyridazin-3-yl)pyridin-2-ol]

# Same assay, conditions: median AC1.4 class, procedure of Example 39
row,Mean AC1.4,Structure (SMILES)
1,B (B=1-10 uM),NC(=O)c1ccc(-c2ccc(NC3(c4ncccc4F)CCC3)nn2)s1 [5-(6-{[(3-fluoro-2-pyridyl)cyclobutyl]amino}pyr-idazin-3-yl)thiophene-2-carboxamide]
2,D (D=>20 uM),O=C(O)c1ccc(-c2ccc(NC3(c4ncccc4F)CCC3)nn2)s1 [5-(6-{[(3-fluoro-2-pyridyl)cyclobutyl]amino}pyr-idazin-3-yl)thiophene-2-carboxylic acid]
3,B (B=1-10 uM),NC(=O)c1ccc(-c2ccc(NC3(c4ccc(F)cc4)CCC3)nn2)s1 [5-(6-{[(4-fluorophenyl)cyclobutyl]ami-no}pyridazin-3-yl)thiophene-2-carboxamide]
4,C (C=10-20 uM),"NC(=O)c1nnc(-c2ccc(NCC3(c4ncccc4F)CCC3)nn2)o1 [5-[6-({[(3-fluoro-2-pyridyl)cyclobutyl]methyl}ami-no)pyridazin-3-yl]-1,3,4-oxadiazole-2-carboxamide]"
5,B (B=1-10 uM),"NC(=O)c1nnc(-c2ccc(NCC3(c4ncccc4F)CCC3)nn2)s1 [5-[6-({[(3-fluoro-2-pyridyl)cyclobutyl]methyl}ami-no)pyridazin-3-yl]-1,3,4-thiadiazole-2-carboxamide]"
6,B (B=1-10 uM),"NC(=O)c1ncc(-c2ccc(NCC3(c4ncccc4F)CCC3)nn2)s1 [5-[6-({[(3-fluoro-2-pyridyl)cyclobutyl]methyl}ami-no)pyridazin-3-yl]-1,3-thiazole-2-carboxamide]"
7,D (D=>20 uM),"O=c1[nH][nH]c2nc(-c3ccc(NCC4(c5ncccc5F)CCC4)nn3)sc12 [5-[6-({[(3-fluoro-2-pyridyl)cyclobutyl]methyl}ami-no)pyridazin-3-yl]-3-pyrazolino[3,4-d]1,3-thiazol-3-one]"
8,C (C=10-20 uM),"NC(=O)c1nnc(-c2ccc(NCC3(c4ncccc4F)CCC3)nn2)[nH]1 [5-[6-({[(3-fluoro-2-pyridyl)cyclobutyl]methyl}ami-no)pyridazin-3-yl]-4H-1,2,4-triazole-3-carboxamide]"
9,B (B=1-10 uM),N#Cc1ccc(-c2ccc(NCC3(c4ncccc4F)CCC3)nn2)s1 [5-[6-({[(3-fluoro-2-pyridyl)cyclobutyl]methyl}ami-no)pyridazin-3-yl]thiophene-2-carbonitrile]
10,A (A=<1 uM),NC(=O)c1ccc(-c2ccc(NCC3(c4ncccc4F)CCC3)nn2)s1 [5-[6-({[(3-fluoro-2-pyridyl)cyclobutyl]methyl}ami-no)pyridazin-3-yl]thiophene-2-carboxamide]
11,B (B=1-10 uM),O=C(O)c1ccc(-c2ccc(NCC3(c4ncccc4F)CCC3)nn2)s1 [5-[6-({[(3-fluoro-2-pyridyl)cyclobutyl]methyl}ami-no)pyridazin-3-yl]thiophene-2-carboxylic acid]
12,B (B=1-10 uM),"O=c1[nH]nc(-c2cnc(-c3ccc(NCC4(c5ncccc5F)CCC4)nn3)s2)o1 [5-{2-[6-({[(3-fluoro-2-pyridyl)cyclobutyl]methyl}ami-no)pyridazin-3-yl]-1,3-thiazol-5-yl}-1,3,4-oxadiazolin-2-one]"

# Same assay, conditions: median AC1.4 reported as class; procedure of Example 39
row,Mean AC1.4,Structure (SMILES)
1,A (A=<1 uM),NC(=O)c1cc(-c2ccc(NC[C@]3(c4ncccc4F)C[C@H](F)C3)nn2)ccc1O [5-[6-({[3-fluoro-1-(3-fluoro(2-pyridyl))cyclobutyl]methyl}ami-no)pyridazin-3-yl]-2-hydroxybenzamide]
2,B (B=1-10 uM),O=C(O)c1cc(-c2ccc(NC[C@]3(c4ncccc4F)C[C@H](F)C3)nn2)ccc1O [5-[6-({[3-fluoro-1-(3-fluoro(2-pyridyl))cyclobutyl]methyl}ami-no)pyridazin-3-yl]-2-hydroxybenzoic acid]
3,B (B=1-10 uM),COc1ccc(-c2ccc(NC[C@]3(c4ncccc4F)C[C@H](F)C3)nn2)cc1C(N)=O [5-[6-({[3-fluoro-1-(3-fluoro(2-pyridyl))cyclobutyl]methyl}ami-no)pyridazin-3-yl]-2-methoxybenzamide]
4,A (A=<1 uM),NC(=O)c1cc2cc(-c3ccc(NC[C@]4(c5ncccc5F)C[C@H](F)C4)nn3)ccc2[nH]1 [5-[6-({[3-fluoro-1-(3-fluoro(2-pyridyl))cyclobutyl]methyl}ami-no)pyridazin-3-yl]indole-2-carboxamide]
5,B (B=1-10 uM),O=C(O)c1cc2cc(-c3ccc(NC[C@]4(c5ncccc5F)C[C@H](F)C4)nn3)ccc2[nH]1 [5-[6-({[3-fluoro-1-(3-fluoro(2-pyridyl))cyclobutyl]methyl}ami-no)pyridazin-3-yl]indole-2-carboxylic acid]
6,C (C=10-20 uM),O=C1NCc2cc(-c3ccc(NC[C@]4(c5ncccc5F)C[C@H](F)C4)nn3)ccc21 [5-[6-({[3-fluoro-1-(3-fluoro(2-pyridyl))cyclobutyl]methyl}ami-no)pyridazin-3-yl]isoindolin-1-one]
7,D (D=>20 uM),COc1ncc(-c2ccc(NCC3(c4ncccc4F)CCC3)nn2)cc1C#N [5-[6-({[(3-fluoro(2-pyridyl))cyclobutyl]methyl}ami-no)pyridazin-3-yl]-2-methoxypyridine-3-carbonitrile]
8,C (C=10-20 uM),COc1ncc(-c2ccc(NCC3(c4ncccc4F)CCC3)nn2)cc1C(N)=O [5-[6-({[(3-fluoro(2-pyridyl))cyclobutyl]methyl}ami-no)pyridazin-3-yl]-2-methoxypyridine-3-carboxamide]
9,C (C=10-20 uM),NC(=O)c1cc(-c2ccc(NCC3(c4ncccc4F)CCC3)nn2)c[nH]c1=O [5-[6-({[(3-fluoro(2-pyridyl))cyclobutyl]methyl}ami-no)pyridazin-3-yl]-2-oxohydropyridine-3-carboxamide]
10,D (D=>20 uM),O=C(O)c1cc(-c2ccc(NCC3(c4ncccc4F)CCC3)nn2)c[nH]c1=O [5-[6-({[(3-fluoro(2-pyridyl))cyclobutyl]methyl}ami-no)pyridazin-3-yl]-2-oxohydropyridine-3-carboxylic acid]
11,B (B=1-10 uM),"O=c1cc(-c2ccc(NCC3(c4ncccc4F)CCC3)nn2)nc2cc[nH]n12 [5-[6-({[(3-fluoro-2-pyridyl)cyclobutyl]methyl}ami-no)pyridazin-3-yl]-8-hydro-3-pyrazolino[1,5-a]pyrimidin-7-one]"
12,D (D=>20 uM),"CC(=O)N1CCc2nc(-c3ccc(NCC4(c5ncccc5F)CCC4)nn3)sc2C1 [5-acetyl-2-[6-({[(3-fluoro(2-pyridyl))cyclobutyl]methyl}ami-no)pyridazin-3-yl]-4,5,6,7-tetrahydro-1,3-thiazolo[5,4-c]pyridine]"
13,B (B=1-10 uM),NC(=O)c1cc(N)cc(-c2ccc(NC[C@]3(c4ncccc4F)C[C@H](F)C3)nn2)c1 [5-amino-3-[6-({[3-fluoro-1-(3-fluoro(2-pyridyl))cyclobutyl]methyl}ami-no)pyridazin-3-yl]benzamide]
14,A (A=<1 uM),N#Cc1cc(N)cc(-c2ccc(NC[C@]3(c4ncccc4F)C[C@H](F)C3)nn2)c1 [5-amino-3-[6-({[3-fluoro-1-(3-fluoro(2-pyridyl))cyclobutyl]methyl}ami-no)pyridazin-3-yl]benzenecarbonitrile]
15,A (A=<1 uM),N#Cc1cc(Br)cc(-c2ccc(NCC3(c4ncccc4F)CCC3)nn2)c1O [5-bromo-3-[6-({[(3-fluoro(2-pyridyl))cyclobutyl]methyl}ami-no)pyridazin-3-yl]-2-hydroxybenzenecarbonitrile]
16,B (B=1-10 uM),NC(=O)c1cc(Cl)cc(-c2ccc(NC[C@]3(c4ncccc4F)C[C@H](F)C3)nn2)c1 [5-chloro-3-[6-({[3-fluoro-1-(3-fluoro(2-pyridyl))cyclobutyl]methyl}ami-no)pyridazin-3-yl]benzamide]
17,C (C=10-20 uM),NC(=O)c1cn[nH]c1NC(=O)c1ccc(NCC2(c3ncccc3F)CCC2)nn1 [5-{[6-({[(3-fluoro-2-pyridyl)cyclobutyl]methyl}ami-no)pyridazin-3-yl]carbonylamino}pyrazole-4-carboxamide]
18,B (B=1-10 uM),"CC(C)(Nc1ccc(-c2cn3c(C(N)=O)csc3n2)nn1)c1ncccc1Cl [6-(6-{[1-(3-chloro(2-pyridyl))-isopropyl]amino}pyridazin-3-yl)imidazo[2,1-b]1,3-thiazoline-3-carboxamide]"
